Assay results from ChEMBL document CHEMBL1201862, “PubChem BioAssay data set” (2004).
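Each compound was tested at five concentrations against cells in 96-well plates for 48 hours. GI50 marks 50% less growth.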 Calls of active or inactive are those of the source. Rule as the data show it: active = GI50 up to about 1.1 µM and inactive = higher.

Experiments:
Assay in all cases: NCI tumour cell line growth inhibition, 48 h
A549 = tested on: A549
HCC 2998 = tested on: HCC 2998
HOP-62 = tested on: HOP-62
HOP-92 = tested on: HOP-92
HT-29 = tested on: HT-29
KM12 = tested on: KM12
MOLT-4 = tested on: MOLT-4
NCI-H23 = tested on: NCI-H23
SK-MEL-28 = tested on: SK-MEL-28
SN12C = tested on: SN12C
SNB-78 = tested on: SNB-78
SW-620 = tested on: SW-620
TK-10 = tested on: TK-10
UACC-62 = tested on: UACC-62
CAKI-1 = tested on: CAKI-1
MCF7 = tested on: MCF7
Malme-3M = tested on: Malme-3M
NCI-H226 = tested on: NCI-H226
NCI-H522 = tested on: NCI-H522
SK-OV-3 = tested on: SK-OV-3

SMILES	GI50 (A549)	GI50 (HCC 2998)	GI50 (HOP-62)	GI50 (HOP-92)	GI50 (HT-29)	GI50 (KM12)	GI50 (MOLT-4)	GI50 (NCI-H23)	GI50 (SK-MEL-28)	GI50 (SN12C)	GI50 (SNB-78)	GI50 (SW-620)	GI50 (TK-10)	GI50 (UACC-62)	GI50 (CAKI-1)	GI50 (MCF7)	GI50 (Malme-3M)	GI50 (NCI-H226)	GI50 (NCI-H522)	GI50 (SK-OV-3)
CCn1cnnc1-c1nsc2ccccc12	> 100 µM (inactive)	> 100 µM (inactive)	> 100 µM (inactive)	45.3 µM (inactive)	> 100 µM (inactive)	> 100 µM (inactive)	> 10 µM (inactive)	> 100 µM (inactive)	> 100 µM (inactive)	> 100 µM (inactive)	> 100 µM (inactive)	> 100 µM (inactive)	> 100 µM (inactive)	> 100 µM (inactive)	–	–	–	–	–	–
CC1(C)OCC=CCO1	> 100 µM (inactive)	> 100 µM (inactive)	> 100 µM (inactive)	> 100 µM (inactive)	> 100 µM (inactive)	> 100 µM (inactive)	> 100 µM (inactive)	> 100 µM (inactive)	> 100 µM (inactive)	> 100 µM (inactive)	–	> 100 µM (inactive)	> 100 µM (inactive)	> 100 µM (inactive)	> 100 µM (inactive)	56 µM (inactive)	> 100 µM (inactive)	> 100 µM (inactive)	69.8 µM (inactive)	> 100 µM (inactive)
N/C(=N/O)N/N=C\c1cc(Cl)cc(Cl)c1O	1.13 µM (inactive)	2.31 µM (inactive)	0.615 µM (active)	7.26 µM (inactive)	5.2 µM (inactive)	6.65 µM (inactive)	0.55 µM (active)	1.54 µM (inactive)	14.1 µM (inactive)	1.62 µM (inactive)	21.1 µM (inactive)	3.97 µM (inactive)	–	0.42 µM (active)	1.09 µM (active)	0.428 µM (active)	4.86 µM (inactive)	2.01 µM (inactive)	3.47 µM (inactive)	4.91 µM (inactive)
Nc1c(-c2ccccc2[N+](=O)[O-])nc2ccccn12	–	> 100 µM (inactive)	> 100 µM (inactive)	> 100 µM (inactive)	> 100 µM (inactive)	> 100 µM (inactive)	> 100 µM (inactive)	> 100 µM (inactive)	> 100 µM (inactive)	> 100 µM (inactive)	–	> 100 µM (inactive)	> 100 µM (inactive)	> 100 µM (inactive)	–	–	> 100 µM (inactive)	> 100 µM (inactive)	–	> 100 µM (inactive)
COc1ccc(C2C(Cl)C(=O)N2NC(=O)c2ccc(NC(C)=O)cc2)cc1OC (stereo not drawn)	> 100 µM (inactive)	> 100 µM (inactive)	> 100 µM (inactive)	> 100 µM (inactive)	> 100 µM (inactive)	> 100 µM (inactive)	> 100 µM (inactive)	> 100 µM (inactive)	> 100 µM (inactive)	–	–	> 100 µM (inactive)	> 100 µM (inactive)	> 100 µM (inactive)	–	–	> 100 µM (inactive)	> 100 µM (inactive)	> 100 µM (inactive)	> 100 µM (inactive)
